The test system of the test is human ureteral smooth muscle. In words: Relaxation of 40 mM KCl-induced contraction of isolated human ureteral smooth muscle strips. The format is cell-based. The settings on record: for ureteral relaxing effect: 40 mM KCl-induced tonic contraction, 10^−6 M phentolamine present, FIG. 1. As for the experimental part: Measurement of the contractile force of the ureteral smooth muscle strip (1) Preparation of smooth muscle strips Specimens of human ureter were obtained from patients undergoing nephrectomy or total cystectomy. After the specimens were carefully dissected free from the surrounding fat tissues, they were cut into spiral strips. The ureteral strips of about 20 mm in length and 5 mm in width were prepared. (2) Experimental conditions Buffer solution; Locke's-solution No.2: NaCl (154 mM), KCl (5.6 mM), CaCl2 (2.1 mM), NaHCO3 (5.6 mM) and glucose (3.6 mM) Ureteral muscle strips without any spontaneous rhythmic contractions were used. An initial resting tension of about 1.0 g was placed. The actions of drugs against the 40 mM KCl-induced tonic contraction were evaluated in the presence of 10^−6 M phentolamine. […] The evaluation of drugs; The drug-induced relaxation was expressed as a percentage of the maximal relaxing response to 10^−5 M of isoproterenol. The ureteral tension before the treatment is indicated as 100%, and the tension after treatment of 10^−5 M of isoproterenol which produces maximal ureteral relaxation is indicated as 0%. According to the methods described above, the ureteral relaxing effects of the drug were measured using the human ureteral smooth muscle strips. According to the method described above, the interaction between a β-adrenoceptor stimulant and a β-adrenoceptor blocker was evaluated in human ureteral smooth muscle strips using the following drugs.

Molecules are shown by their SMILES.

Take `CC(C)(C)NCC(O)COc1cccc2[nH]c(=O)[nH]c12.Cl` (racemic) [CGP-12,177A, (±)-4-[3-[(1,1-dimethylethyl)amino]-2-hydroxypropoxy]-1,3-dihydro-2H-benzimidazol-2-one hydrochloride]: the ureteral relaxing effect result is on record as “produced apparent ureteral relaxation”.
As for `Cc1ccc(OCC(O)C(C)NC(C)C)c2c1CCC2.Cl` (racemic) [ICI-118,551, (±)-1-[(2,3-dihydro-7-methyl-1H-inden-4-yl)oxy]-3-[(1-methylethyl)amino]-2-butanol hydrochloride], the “blocking of isoproterenol-induced ureteral relaxation” value (40 mM KCl contraction, ICI-118,551 100 nM pre-treatment, FIG. 2) is recorded as “attenuated the isoproterenol-induced ureteral relaxation, but did not completely block”.
Turning to `CC(C)NCC(O)c1ccc(O)c(O)c1` (centres unmarked) [isoproterenol], the ureteral relaxing effect result is “showed a more potent relaxing effect”. Further, under “40 mM KCl contraction, pre-treatment with 100 nM ICI-118,551, relative to maximal relaxation by 10^−5 M isoproterenol alone, FIG. 2”, the “relaxation produced by isoproterenol in the presence of ICI-118,551” value is recorded as “about 50%”.
For `CCC(NC(C)C)C(O)c1ccc(O)c2[nH]c(=O)ccc12` (centres unmarked) [procaterol], the ureteral relaxing effect result was “produced apparent ureteral relaxation”.

Values taken from patent US6410560B1, “Drug for relieving pain and promoting the removal of calculi in urolithiasis” (Kissei Pharmaceutical Co., Ltd., priority 1995, dated 2002).
